US20230226065A1, “ANTI-INFLAMMATORY COMPOSITIONS, METHODS AND USES THEREOF” (COMVITA LIMITED, priority 2020, published 2023)

Assays:
[1] = test system: MMP-9 secretion in differentiated THP-1 cells; assay: LPS induced MMP-9 secretion in differentiated THP-1 cells (ELISA); assay type: cell-based, human; conditions: 6 μM Azithromycin positive control; LPS 1 μg/mL; P=0.00
Description: THP-1 cells (ATCC, ATCTIB202) were grown in RPMI-1640 (Gibco, 11875093)+0.05 mM 2-mercaptoethanol+10% fetal calf serum (FCS)+1% pen-strep. For experiments, the cells were cultured in RPMI-1640 medium with 10% fetal bovine serum (FBS) only.
THP-1 monocyte cells were seeded at a density of 2.5×10^5 cells/ml in 96-well plates and differentiated into macrophages using 10 ng/ml of phorbol 12-myristate 13-acetate (PMA) (Bergin et al) (Sigma, P1585-1MG, Lot #SLBX889, 100% purity) for 72 hours. PMA media was then removed from the differentiated THP-1 cells, the cells were then washed once in RPMI-1640 media and then left to rest for 5 hours.
The differentiated THP-1 cells were stimulated with LPS from E. coli 055:B5 (Sigma, L6529; Lot #037K4068). LPS tested at a concentration of 1 μg/ml (Kong et al). […] After 24 hours, the cell culture media was collected and measured for MMP-9 concentration using MMP-9 ELISA (R&D systems, RDSDY91105 lot #P239459 and DY008 Lot #P239900). […]
In order to better capture the variability, each treatment was done at least in triplicate in each plate (2 plates). Media from the triplicate wells were pooled and analysed in duplicates for the MMP-9 ELISA. […]

[2] = test system: COX-2 protein expression in THP-1 cells; assay: LPS-induced COX-2 protein expression in THP-1 cells (Western blot); assay type: cell-based, human
Description: THP-1 cells were seeded in 12-well tissue-culture treated plates at a density of 500,000 cells/well in growth media overnight. […] Cells were washed with cold PBS and lysed in RIPA buffer containing protease inhibitors (Sigma P2714) for 15 minutes on ice. Debris was pelleted by centrifugation at 14,000×g for 15 min and lysate supernatants were frozen at −80° C. for later analysis by western blot.
Western blots for semi-quantitative COX-2 (Abcam ab188183) protein expression were conducted on THP-1 monocyte cells lysed with RIPA buffer containing protease inhibitors. A total of 10 μg protein was loaded onto precast 10% acrylamide gels (BioRad, NZ) then separated by electrophoresis at 120 V at room temperature. […] The membranes were then incubated with the primary antibody that correspond to the protein of interest for 1 h. […] Western blot images were captured with an Amersham™ Imager 600 (GE Healthcare, Chicago, Ill., USA) and densitometry measurement of protein bands was analysed with the accompanying image analysis software.
For analysis of Western blots, densitometry measurements from the proteins of interest were normalised to the densitometry of p-actin for each sample. […] The significance level was set at p≤0.05.

THP-1 cells = assay: WST-1 cell viability assay, LPS-stimulated THP-1 cells; assay type: cell-based; conditions: 10 μg/mL dexamethasone; LPS co-stimulation 18 hours
Description: Human monocytic THP-1 cells were seeded in 96-well tissue-culture treated plates at a density of 50,000 cells/well in growth media (RPMI media supplemented with 10% fetal bovine serum, 2 mM L-glutamine and penicillin-streptomycin) overnight. […] Control wells were treated with hydrogen peroxide (0, 0.5, 1, and 2 mM) for 1 hour prior to addition of WST-1 reagent (Roche, NZ). WST-1 reagent was added to all wells at the end of the 18 hour incubation period, and absorbance readings were subsequently measured 30 min and 1 h and 10 mins after WST-1 addition. Cell viability expressed the percent change from the LPS-stimulated PBS control.

recombinant MMP-9 enzyme [3] = target: T1, recombinant MMP-9 enzyme (Homo sapiens, UniProt P14780); assay: MMP-9 inhibitor screening assay (colorimetric); assay type: biochemical; conditions: NNGH at 1.3 μM
T1 construct: purchased Abcam ab139449
T1 sequence (P14780 94-707): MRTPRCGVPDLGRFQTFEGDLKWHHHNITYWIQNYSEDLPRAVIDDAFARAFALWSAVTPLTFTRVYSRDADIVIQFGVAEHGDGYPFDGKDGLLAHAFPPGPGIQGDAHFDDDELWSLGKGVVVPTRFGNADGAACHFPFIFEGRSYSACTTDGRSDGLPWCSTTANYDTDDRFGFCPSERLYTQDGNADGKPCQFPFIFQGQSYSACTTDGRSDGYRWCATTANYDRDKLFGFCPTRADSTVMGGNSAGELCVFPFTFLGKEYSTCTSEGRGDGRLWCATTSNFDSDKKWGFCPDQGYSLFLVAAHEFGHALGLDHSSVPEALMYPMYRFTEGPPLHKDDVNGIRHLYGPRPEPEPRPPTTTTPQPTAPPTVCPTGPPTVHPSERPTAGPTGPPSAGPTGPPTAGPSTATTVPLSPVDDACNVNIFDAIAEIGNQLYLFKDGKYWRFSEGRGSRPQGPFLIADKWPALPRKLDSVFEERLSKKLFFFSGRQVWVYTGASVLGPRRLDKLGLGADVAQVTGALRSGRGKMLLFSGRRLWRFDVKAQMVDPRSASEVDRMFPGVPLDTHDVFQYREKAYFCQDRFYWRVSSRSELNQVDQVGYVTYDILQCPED
From the text: The MMP-9 inhibitor screening assay (colorimetric) kits were purchased from Abcam (Melbourne, Australia). The kit contains the recombinant MMP-9 enzyme, MMP inhibitor NNGH, MMP chromogenic substrate, the colorimetric assay buffer and 96-well clear microplate.
The colorimetric kit uses a thiopeptide as a chromogenic substrate (Ac-PLG-[2-mercapto-4-methyl-pentanoyl]-LG-OC2H5), which can be hydrolysed by MMPs to produce a sulfhydryl group. This intermediate product further reacts with DTNB [5,5′-dithiobis(2-nitrobenzoic acid), Ellman's reagent] to form 2-nitro-5-thiobenzoic acid, which can be detected by absorbance at 412 nm. The change in absorbance was measured using the SpectraMax iD3 multi-mode microplate reader (Molecular Devices, San Jose, USA). The assays are performed on a convenient 96-wells microplate with a final reaction volume of 100 μL. Prior to the assay, all testing samples and inhibitor controls were incubated with MMP-9 for 60 min at 37° C. […] The absorbance was measured at 1 min intervals during the first 20 min, then 10 min intervals till the end of assay.
Recombinant MMP-9 and the chromogenic substrate were used as the positive control to represent 100% enzyme activity. […] A range of 3,6,7-trimethyllumazine concentrations were diluted with the colorimetric assay buffer to measure the absorbance of the reaction product.

active MMP-9 = assay: Gelatin gel zymography, active MMP-9 band; assay type: biochemical; conditions: NNGH 2.6 μM in developing buffer; active MMP-9
Description: Novex™ 10% Zymogram Plus (Gelatin) Protein Gels (15 wells) were purchased from Thermo Fisher Scientific Inc. (Auckland, New Zealand). All chemicals required for the zymogram analysis were also purchased from Thermo Fisher, these include Novex™ Sharp Pre-stained Protein Standard, Novex Tris-Glycine SDS sample buffer, Novex Tris-Glycine SDS running buffer, Novex Zymogram renaturing buffer and Novex Zymogram developing buffer. […] Gelatin gel zymography was performed as an independent technique to confirm the inhibition of MMP-9 from 3,6,7-trimethyllumazine. This technique uses a non-reducing SDS-PAGE (sodium dodecyl sulfate polyacrylamide gel electrophoresis) gel embedded with gelatin. Proteins are migrated and separated during electrophoresis. The SDS is removed after electrophoresis and the gel is then incubated with essential cofactors required for enzymatic activity. The embedded gelatin can be digested by MMP-9, resulting in clear bands on a dark blue background after staining with Coomassie blue dyes. The gelatinase activity is represented by band densitometry, which can be assessed with image analysis software. […]
After incubation, the gelatin gel was rinsed with water for three times (5 min each) under gentle agitation. […] MMP-9 activities were analysed using densitometry on ImageJ Version 1.52a. […]

recombinant MMP-9 enzyme [4] = target: T1, recombinant MMP-9 enzyme; assay: MMP-9 inhibitor screening assay (fluorometric); assay type: biochemical; conditions: NNGH inhibitor control
Description: The MMP-9 inhibitor screening assay (fluorometric) kits were purchased from Abcam (Melbourne, Australia). The fluorometric kit contains the recombinant MMP-9 enzyme, MMP inhibitor NNGH (N-isobutyl-N-[4-methoxyphenylsulfonyl]glycyl hydroxamic acid), MMP fluorogenic substrate solubilised in DMSO, the fluorometric assay buffer and 96-well clear microplate.
Inhibitory activity on MMP-9 was assessed using the commercial MMP-9 inhibitor screening assay kit. MMP-9 activity was expressed as a change in fluorescence intensity measured using SpectraMax iD3 multi-mode microplate reader (Molecular Devices, San Jose, USA).
The assay employs a FRET-tagged (fluorescence resonance energy transfer) substrate, which can be hydrolysed by MMP-9 at a specific site (Abcam, 2018). The cleavage of the FRET substrate releases the quenched fluorescent Mca (7-methoxycoumarin-4-yl)-acetyl group (Abcam, 2018). The kit employs a quenched fluorogenic substrate Mca-Pro-Leu-Gly-Leu-Dpa-Ala-Arg-NH2, where the Mca fluorescence is quenched by Dpa until cleavage by MMPs. The amount of fluorescent product yielded by MMP-9 can be detected fluorometrically and it is proportional to the enzyme activity. Fluorescence were measured at ex320 nm-em395 nm to minimise fluorescence interference from 3,6,7-trimethyllumazine at ex330 nm-em470 nm. […]

CC[C@H]1OC(=O)[C@H](C)[C@@H](O[C@H]2C[C@@](C)(OC)[C@@H](O)[C@H](C)O2)[C@H](C)[C@@H](O[C@@H]2O[C@H](C)C[C@H](N(C)C)[C@H]2O)[C@](C)(O)C[C@@H](C)CN(C)[C@H](C)[C@@H](O)[C@]1(C)O [Azithromycin]
effect on MMP-9 secretion [1]: inhibits MMP-9 secretion

C[C@@H]1C[C@H]2[C@@H]3CCC4=CC(=O)C=C[C@]4(C)[C@@]3(F)[C@@H](O)C[C@]2(C)[C@@]1(O)C(=O)CO [Dexamethasone, reference compound]
COX-2 Relative expression (mean ± SEM) ([2]; 10 μg/mL, LPS 24 hours, LPS positive control 1.26 ± 0.11, n=6): 0.85 ± 0.07 | cell death (WST-1 cell viability) (THP-1 cells): did not induce cell death

COc1ccc2c(c1)c(CC(=O)O)c(C)n2C(=O)c1ccc(Cl)cc1 [Indomethacin, reference compound]
reduction of LPS-induced COX-2 expression ([2]; indomethacin 10 μmol/L): did not significantly reduce

COc1ccc(S(=O)(=O)N(CC(=O)NO)CC(C)C)cc1 [NNGH, N-isobutyl-N-[4-methoxyphenylsulfonyl]glycyl hydroxamic acid, reference compound]
inhibition of MMP-9 activity (recombinant MMP-9 enzyme [3]): inhibited most of the MMP-9 activity | inhibition of gelatinase activity (active MMP-9): completely inhibited | change in fluorescence (MMP-9 activity) (recombinant MMP-9 enzyme [4]): almost no change in fluorescence
